The values below come from article PMC8596843, “Platinum Cyclooctadiene Complexes with Activity against Gram‐positive Bacteria” (Chemmedchem, 2021).

Series [1] relates to HEK-293 ATCC CRL-1573 human embryonic kidney cells. Type of series: cell-based. The procedure: As part of the CO‐ADD screening, all compounds that show any activity against a microbial strain are evaluated for their cytotoxicity against human embryonic kidney cells (HEK‐293) and for haemolysis against human red blood cells. None of the compounds tested for cytotoxicity (Pt1‐9 and Pd1) caused any significant cell death up to concentrations of 100 μM. […] We have also observed higher IC50 values for the methylated complexes Pt3 and Pt4 against HeLa cells in previous work.[16] […]
inhibitors as positive control.
Tamoxifen (Sigma T5648) was used
as internal control on each plate.
in a Neubauer haemocytometer. […]

Series [2] relates to S. aureus ATCC 43300 MRSA. Briefly: MIC in the presence of human serum (serum reversal). As to conditions: Staphylococcus aureus, read-out: MIC in the presence of human serum. The series is classed as cell-based, Staphylococcus aureus. The text has this:
(§1) To obtain some initial insight into the apparent disparity between in vitro and in vivo results, we repeated the MIC experiments against four selected Gram‐positive strains in the presence of 10 % or 50 % human serum (Table S3). Pt1 and Pt2 maintained some antibacterial activity against B. subtilis in the presence of 10 % serum, but a complete loss of activity was observed against MRSA and GISA (50 % serum), and VRE (10 % serum). […] Systemic administration is therefore unlikely to be a suitable administration route for this class of compounds unless an alternative formulation that can prevent serum binding (e. g. by lipid or nanoparticle encapsulation) can be found. […] Further in vivo studies should therefore focus on more suitable disease models. […]
(§2) Antibacterial minimum inhibitory concentration (MIC) assay
(§3) concentration. (in-house screening)
(§4) Bacto Laboratories 212322) at 37 °C overnight.
(§5) The resultant mid-log phase cultures were diluted
(§6) Gram-negative and Gram-positive bacteria, respectively.
(§7) final concentration range of 0.8 – 100 µM.
(§8) inhibitors as positive control. […]

Series [3] has as its system S. aureus NRS 17 GISA. The series is described as above. The series is classed as cell-based, Staphylococcus aureus. The conditions noted are these: Staphylococcus aureus, NRS17, read-out: MIC in the presence of human serum.
Excerpt: as §1, §2, §3, §4, §5, §6, §7, §8

Series [4] has as its system E. faecium ATCC 51559 MDR, VRE. Described as above. Type of series: cell-based, Enterococcus faecium. As to conditions: Enterococcus faecium, read-out: MIC in the presence of human serum.
Excerpt: as §1, §2, §3, §4, §5, §6, §7, §8

In series [5] the test system is B. subtilis ATCC 6051 type strain. The description is as above. The series is classed as cell-based, Bacillus subtilis. As to conditions: Bacillus subtilis, ATCC6051, read-out: MIC in the presence of human serum.
Excerpt: as §1, §2, §3, §4, §5, §6, §7, §8

Series [6] relates to Staphylococcus epidermidis NRS 60, VISE. Briefly: Antibacterial MIC assay, Gram-positive panel. Type of series: cell-based. The conditions noted are these: Staphylococcus epidermidis. The procedure: (§9) Smiles: C1C=CCCC(=CC1)C1=CCCC=CCC1.C[Pt]C.C[Pt]C […]
(§10) ATCC strains were sourced from the American Type Culture Collection and NRS strains from NARSA (Network on Antimicrobial Resistance in Staphylococcus aureus) via BEI Resources (www.beiresources.org), with clinical MSSA and MRSA isolates from Prof Graeme Nimmo, Queensland […]
(§11) Health Central Pathology. […]
as §2
(§12) Compound Assay Plate Preparation: Compounds were dissolved in DMSO at 10mM (CO-ADD screening) or 4 mM (follow up screening) and were plated in a 2-fold dose response from 20 to 0.156 µM or 200 to 0.006 µM respectively, with a maximum of 0.5% or 1% DMSO, final in the assay […]
(§13) plated in a 2-fold dose response from 200 to 0.006 µM, with a maximum of 1 % DMSO, final in the assay concentration. (in-house screening)
(§14) For all the bacterial assays, each strain was cultured in Cation-adjusted Mueller Hinton broth (CAMHB; Bacto Laboratories 212322) at 37 °C overnight. A sample of each culture was then diluted 40-fold in fresh CAMHB and incubated at 37 °C for 1.5–3 h. The resultant mid-log phase cultures were diluted with CAMHB (CFU mL−1 measured by OD600), then added to each well of the compound-containing plates (384-well non-binding surface (NBS) plates; Corning CLS3640), giving a cell density of 5 × 10^5 CFU mL−1 and a total volume of 50 μL. Plates were covered and incubated at 37 °C for 18 h without shaking. Inhibition of bacterial growth was determined measuring absorbance at 600 nm (OD600), using media only as negative control and bacteria without inhibitors as positive control. MIC values were determined as the lowest concentration at which the growth was inhibited at ≥80%. Colistin sulfate (Sigma C4461) and vancomycin HCl (Sigma 861987) were used as internal controls on each plate for Gram-negative and Gram-positive bacteria, respectively. […]

For series [7], the system named is Enterococcus faecium Clinical Isolate, VRE (VanA). The experiment in a line: Antibacterial MIC assay, Gram-positive panel. The series is classed as cell-based. As to conditions: Enterococcus faecium, VRE. The procedure: as §9, §10, §11, §2, §12, §13, §14
Series [8] concerns Staphylococcus aureus NRS 17, GISA. The experiment in a line: Antibacterial MIC assay, Gram-positive panel. Type of series: cell-based. As to conditions: Staphylococcus aureus. The procedure:
as §9, §10, §11, §2, §12, §13, §14

Series [9] deals with Enterococcus faecalis Clinical Isolate, VRE (VanB). The experiment in a line: Antibacterial MIC assay, Gram-positive panel. Type of series: cell-based. As to conditions: Enterococcus faecalis, VRE. The procedure:
as §9, §10, §11, §2, §12, §13, §14

For series [10], the system named is Enterococcus faecium ATCC 51559, MDR, VRE (VanA). Briefly: Antibacterial MIC assay, Gram-positive panel. The conditions noted are these: Enterococcus faecium. The series is classed as cell-based. The procedure: as §9, §10, §11, §2, §12, §13, §14
Series [11] concerns Bacillus subtilis ATCC 6051, type strain. The experiment in a line: Antibacterial MIC assay, Gram-positive panel. Type of series: cell-based. The conditions noted are these: Bacillus subtilis. The procedure:
as §9, §10, §11, §2, §12, §13, §14

Series [12] concerns Enterococcus faecalis ATCC 29212, control strain. The experiment in a line: Antibacterial MIC assay, Gram-positive panel. Type of series: cell-based. As to conditions: Enterococcus faecalis. The procedure:
as §9, §10, §11, §2, §12, §13, §14

The test system of series [13] is Enterococcus faecium ATCC 35667, type strain. Briefly: Antibacterial MIC assay, Gram-positive panel. The series is classed as cell-based. The conditions noted are these: Enterococcus faecium. The procedure:
as §9, §10, §11, §2, §12, §13, §14

The subject of series [14] is Staphylococcus epidermidis ATCC 14990, type strain. The experiment in a line: Antibacterial MIC assay, Gram-positive panel. The series is classed as cell-based. As to conditions: Staphylococcus epidermidis. The procedure: as §9, §10, §11, §2, §12, §13, §14
Series [15] has as its system Staphylococcus aureus ATCC 43300 (MRSA). Briefly: microbe, parasite or virus in culture. Type of series: cell-based. The conditions noted are these: Staphylococcus aureus. The procedure: All compounds submitted to CO‐ADD are initially screened against five bacterial strains (Staphylococcus aureus (MRSA), E. coli, Klebsiella pneumoniae, Pseudomonas aeruginosa, Acinetobacter baumannii) and two fungal strains (Candida albicans, Cryptococcus neoformans) at a single concentration (32 μg/mL or 20 μM) performed as a high‐throughput primary screening.[[11], [17a]] Any compounds that show significant growth inhibition against any of the tested strains at this step are then evaluated in a dose‐response assay against these same strains. […]
as §9, §10, §11, §2, §12, §13, §14

Series [16] has as its system Staphylococcus aureus VRS 1, VRSA (VanA). The experiment in a line: Antibacterial MIC assay, Gram-positive panel. The series is classed as cell-based. The conditions noted are these: Staphylococcus aureus, VRSA.
Excerpt: (§15) Bis(dimethyl-η4)-((1Z,1'E,5Z,5'E)-(1,1'-bi(cyclooctadiene))diplatinum(II) (Pt14) Smiles: C1C=CCCC(=CC1)C1=CCCC=CCC1.C[Pt]C.C[Pt]C
(§16) InChIKey: PHIWIZAHOBWKFJ-HPCBIOCFSA-N
(§17) Link to selected data that was repeated to approve the identity of the compounds: https://dx.doi.org/10.14272/PHIWIZAHOBWKFJ-HPCBIOCFSA-N.1
as §10, §11, §2, §12, §13, §14

The test system of series [17] is Staphylococcus aureus ATCC 25923, MSSA. The experiment in a line: Antibacterial MIC assay, Gram-positive panel. Type of series: cell-based. The conditions noted are these: Staphylococcus aureus.
Excerpt: as §15, §16, §17, §10, §11, §2, §12, §13, §14

In brackets after ≈: the same amount, converted by molar mass. Where two headings read alike, the source gives them in different places.

As to `CC/C(=C(\c1ccccc1)c1ccc(OCCN(C)C)cc1)c1ccccc1` [Tamoxifen, reference compound], the “HEK‐293 CC50” value in series [1] was 34.75–30.55.
Regarding `CN[C@H](CC(C)C)C(=O)N[C@H]1C(=O)N[C@@H](CC(N)=O)C(=O)N[C@H]2C(=O)N[C@H]3C(=O)N[C@H](C(=O)N[C@H](C(=O)O)c4cc(O)cc(O)c4-c4cc3ccc4O)[C@H](O)c3ccc(c(Cl)c3)Oc3cc2cc(c3O[C@@H]2O[C@H](CO)[C@@H](O)[C@H](O)[C@H]2O[C@H]2C[C@](C)(N)[C@H](O)[C@H](C)O2)Oc2ccc(cc2Cl)[C@H]1O` [Vancomycin, reference compound], the MIC was 0.5 to 1 µg/mL in series [2]; 8 µg/mL in [3]; above 64 µg/mL in series [4]; 0.5 µg/mL in [5]; 2.76 µg/mL (≈ 1.9 µM) in [6] (NRS60, Table 2 panel, n=4); 4 µg/mL (≈ 2.76 µM) in series [6] (NRS60, Table S1, vancomycin control). The MIC is above 44.2 µg/mL in series [7] (Table 2 panel, n=4); above 64 µg/mL in series [7] (Table S1, vancomycin control); 5.52 µg/mL (≈ 3.81 µM) in series [8] (NRS17, Table 2 panel, n=2); 8 µg/mL (≈ 5.52 µM) in series [8] (NRS17, Table S1, vancomycin control); above 44.2 µg/mL in [9] (Table 2 panel, n=4); 64 µg/mL (≈ 44.2 µM) in series [9] (Table S1, vancomycin control). Moreover, the MIC in series [10] (Table 2 panel, n=2) is above 44.2 µg/mL; in [10] (Table S1, vancomycin control) it was above 64 µg/mL; in series [11] (ATCC6051, Table 2 panel, n=2), 0.35 µg/mL (≈ 0.242 µM); in series [11] (ATCC6051, Table S1, vancomycin control) it was 0.5 µg/mL (≈ 0.345 µM); in series [12] (ATCC29212, Table 2 panel, n=4), 1.38 to 2.76 µg/mL (≈ 0.952 to 1.9 µM); in [12] (ATCC29212, Table S1, vancomycin control) it was 2 to 4 µg/mL (≈ 1.38 to 2.76 µM). Also, the MIC in series [13] (ATCC35667, Table 2 panel, n=4) was 0.35 µg/mL (≈ 0.242 µM); in series [13] (ATCC35667, Table S1, vancomycin control) it was 0.5 µg/mL (≈ 0.345 µM); in series [14] (ATCC14990, Table 2 panel, n=4), 0.69 to 1.38 µg/mL (≈ 0.476 to 0.952 µM); in series [14] (ATCC14990, Table S1, vancomycin control), 1 to 2 µg/mL (≈ 0.69 to 1.38 µM); in series [15] (Table 2 panel, n=2), 0.35 to 0.69 µg/mL (≈ 0.242 to 0.476 µM); in series [15] (Table S1, vancomycin control), 0.5 to 1 µg/mL (≈ 0.345 to 0.69 µM). Further, the MIC is 1 µg/mL (≈ 0.69 µM) in [15] (read-out: MIC Sa, CO‐ADD screening, control antibiotic); above 44.2 µg/mL in series [16] (Table 2 panel, n=4); above 64 µg/mL in series [16] (Table S1, vancomycin control); 0.69 µg/mL (≈ 0.476 µM) in series [17] (Table 2 panel, n=4); 1 µg/mL (≈ 0.69 µM) in series [17] (Table S1, vancomycin control).
